US8959984B2, “Proteome-wide quantification of small molecule binding to cellular target proteins” (priority 2007, dated 2015)
Like-named read-outs stand apart in the source and are kept apart here.

Tests used:
JNK2, RIPK2, ERK2, ROCK2 = assay: immunoblot of IVA1/IVA2 eluates from V16742 matrix, HeLa lysate; assay type: binding, human
Procedure: The proteins retained on the beads were immunoblotted with specific antibodies for JNK2, RIPK2, ERK2 and ROCK2, the targets with affinities ranging from high to very low as identified/predicted by mass spectrometry.
Immunoblotting of affinity chromatography eluates from either IVA1 or IVA2 setting was performed with the following antibodies: Rabbit anti-casein kinase Iα, Rabbit anti-JNK2, Rabbit anti-ROCK-II (all from Cell Signaling Technology, Inc.), anti-GSK3β, anti-RIPK2, anti-GAK, anti-ERK2 (Santa Cruz)

[1] = target: T1, hydroxyacyl Coenzyme A dehydrogenase, type II isoform 1 (Homo sapiens, UniProt Q99714); assay: binding to immobilized V16742 (IVA1/IVA2, HeLa lysate, MS)
T1 construct: endogenous in cells; host or cells: HeLa S3
T1 sequence (Q99714 1-261): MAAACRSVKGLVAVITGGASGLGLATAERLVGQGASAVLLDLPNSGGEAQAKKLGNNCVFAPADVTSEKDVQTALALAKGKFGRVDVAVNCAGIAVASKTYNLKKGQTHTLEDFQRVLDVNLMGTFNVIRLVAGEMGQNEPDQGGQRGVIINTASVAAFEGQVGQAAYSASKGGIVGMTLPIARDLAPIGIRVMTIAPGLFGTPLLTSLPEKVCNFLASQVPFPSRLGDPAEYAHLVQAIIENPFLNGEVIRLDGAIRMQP

[2] = target: T2, Testis expressed sequence 264 protein precursor (Homo sapiens, UniProt Q9Y6I9); assay: as above
T2 construct: endogenous in cells; host or cells: HeLa S3
T2 sequence (Q9Y6I9 1-313): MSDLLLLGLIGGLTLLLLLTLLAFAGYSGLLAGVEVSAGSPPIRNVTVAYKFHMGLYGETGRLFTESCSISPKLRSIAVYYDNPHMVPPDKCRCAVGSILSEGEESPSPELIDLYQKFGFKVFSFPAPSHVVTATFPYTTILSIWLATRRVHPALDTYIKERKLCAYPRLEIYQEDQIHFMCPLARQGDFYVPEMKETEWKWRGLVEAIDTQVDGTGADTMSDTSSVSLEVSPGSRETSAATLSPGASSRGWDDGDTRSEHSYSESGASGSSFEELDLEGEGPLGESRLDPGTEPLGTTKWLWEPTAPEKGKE

ROCK2 = ROCK2 (Homo sapiens, UniProt O75116); assay: as above
ROCK2, sequence (O75116 whole entry): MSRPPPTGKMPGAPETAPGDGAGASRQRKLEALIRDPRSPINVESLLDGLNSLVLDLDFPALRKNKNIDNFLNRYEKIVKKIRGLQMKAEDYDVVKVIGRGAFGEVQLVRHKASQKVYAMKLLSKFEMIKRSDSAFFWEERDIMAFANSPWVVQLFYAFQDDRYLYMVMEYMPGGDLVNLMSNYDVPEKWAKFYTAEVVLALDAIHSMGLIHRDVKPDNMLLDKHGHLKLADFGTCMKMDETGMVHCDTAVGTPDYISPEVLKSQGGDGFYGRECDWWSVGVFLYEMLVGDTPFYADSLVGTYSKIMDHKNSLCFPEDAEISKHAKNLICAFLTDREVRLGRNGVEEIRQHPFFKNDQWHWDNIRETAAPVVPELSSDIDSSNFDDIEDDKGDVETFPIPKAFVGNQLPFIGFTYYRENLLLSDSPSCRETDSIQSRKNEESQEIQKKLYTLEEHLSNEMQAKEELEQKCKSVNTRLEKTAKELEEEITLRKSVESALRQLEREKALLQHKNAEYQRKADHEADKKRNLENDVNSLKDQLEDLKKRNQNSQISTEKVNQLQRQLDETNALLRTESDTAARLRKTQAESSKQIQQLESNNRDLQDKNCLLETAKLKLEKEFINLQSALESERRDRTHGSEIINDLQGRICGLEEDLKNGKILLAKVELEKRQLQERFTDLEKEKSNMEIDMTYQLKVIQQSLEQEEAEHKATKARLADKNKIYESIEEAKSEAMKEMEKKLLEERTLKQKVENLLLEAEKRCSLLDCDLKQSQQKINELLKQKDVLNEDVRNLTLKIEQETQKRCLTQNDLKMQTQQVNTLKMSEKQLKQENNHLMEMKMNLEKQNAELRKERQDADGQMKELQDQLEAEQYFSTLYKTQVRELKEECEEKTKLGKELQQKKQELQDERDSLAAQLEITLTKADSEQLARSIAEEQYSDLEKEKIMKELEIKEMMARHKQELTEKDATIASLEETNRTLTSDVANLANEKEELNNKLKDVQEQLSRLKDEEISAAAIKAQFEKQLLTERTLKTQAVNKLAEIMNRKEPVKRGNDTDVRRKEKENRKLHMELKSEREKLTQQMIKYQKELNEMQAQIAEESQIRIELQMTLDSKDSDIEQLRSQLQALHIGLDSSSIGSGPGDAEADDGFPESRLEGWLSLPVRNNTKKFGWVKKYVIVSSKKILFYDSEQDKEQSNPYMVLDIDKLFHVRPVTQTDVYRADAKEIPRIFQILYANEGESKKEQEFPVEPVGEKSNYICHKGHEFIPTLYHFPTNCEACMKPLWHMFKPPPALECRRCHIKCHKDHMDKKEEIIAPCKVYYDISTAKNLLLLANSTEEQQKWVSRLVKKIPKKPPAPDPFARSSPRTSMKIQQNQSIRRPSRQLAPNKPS

GSK3A = GSK3A (Homo sapiens, UniProt P49840); assay: as above
GSK3A, sequence (P49840 whole entry): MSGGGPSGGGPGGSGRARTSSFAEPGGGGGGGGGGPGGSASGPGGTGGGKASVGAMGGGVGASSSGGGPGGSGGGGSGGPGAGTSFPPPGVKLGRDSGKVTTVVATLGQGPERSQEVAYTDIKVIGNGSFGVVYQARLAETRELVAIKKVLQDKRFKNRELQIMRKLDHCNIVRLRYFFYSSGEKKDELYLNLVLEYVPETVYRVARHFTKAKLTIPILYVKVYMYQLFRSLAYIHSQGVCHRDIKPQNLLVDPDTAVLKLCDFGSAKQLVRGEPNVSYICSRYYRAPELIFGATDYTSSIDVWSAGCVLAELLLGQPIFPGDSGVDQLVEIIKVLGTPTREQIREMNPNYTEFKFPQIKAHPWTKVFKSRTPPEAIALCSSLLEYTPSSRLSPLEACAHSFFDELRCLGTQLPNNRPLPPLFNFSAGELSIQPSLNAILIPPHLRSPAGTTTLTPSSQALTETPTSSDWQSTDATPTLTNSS

BRD3 = BRD3 (Homo sapiens, UniProt Q15059); assay: as above
BRD3, sequence (Q15059 whole entry): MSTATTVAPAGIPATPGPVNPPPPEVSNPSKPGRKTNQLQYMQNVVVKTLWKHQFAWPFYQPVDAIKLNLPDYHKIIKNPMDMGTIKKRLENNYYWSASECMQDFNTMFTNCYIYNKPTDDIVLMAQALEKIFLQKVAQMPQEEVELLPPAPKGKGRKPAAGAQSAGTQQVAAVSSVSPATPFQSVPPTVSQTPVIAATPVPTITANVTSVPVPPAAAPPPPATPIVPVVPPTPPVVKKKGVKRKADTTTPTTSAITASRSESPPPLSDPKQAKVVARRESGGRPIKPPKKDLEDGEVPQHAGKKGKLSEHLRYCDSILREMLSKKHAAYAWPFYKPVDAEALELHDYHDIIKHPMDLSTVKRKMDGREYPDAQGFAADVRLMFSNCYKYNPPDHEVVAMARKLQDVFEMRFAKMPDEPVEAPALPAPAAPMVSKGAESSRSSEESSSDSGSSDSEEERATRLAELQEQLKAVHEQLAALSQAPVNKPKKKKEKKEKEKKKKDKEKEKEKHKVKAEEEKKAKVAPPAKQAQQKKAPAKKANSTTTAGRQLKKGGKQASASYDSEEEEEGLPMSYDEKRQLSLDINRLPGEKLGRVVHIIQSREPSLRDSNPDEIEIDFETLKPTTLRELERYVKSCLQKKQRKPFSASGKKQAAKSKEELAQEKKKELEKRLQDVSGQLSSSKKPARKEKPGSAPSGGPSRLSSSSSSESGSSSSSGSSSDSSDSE

RPL7 = RPL7 (Homo sapiens, UniProt P18124)
BLMH = target: T3, BLMH (Homo sapiens, UniProt Q13867); assay: gefitinib competition against AX14596 beads (HeLa lysate, SILAC MS); assay type: binding
T3 construct: endogenous in cells; host or cells: HeLa S3
T3 sequence (Q13867 1-455): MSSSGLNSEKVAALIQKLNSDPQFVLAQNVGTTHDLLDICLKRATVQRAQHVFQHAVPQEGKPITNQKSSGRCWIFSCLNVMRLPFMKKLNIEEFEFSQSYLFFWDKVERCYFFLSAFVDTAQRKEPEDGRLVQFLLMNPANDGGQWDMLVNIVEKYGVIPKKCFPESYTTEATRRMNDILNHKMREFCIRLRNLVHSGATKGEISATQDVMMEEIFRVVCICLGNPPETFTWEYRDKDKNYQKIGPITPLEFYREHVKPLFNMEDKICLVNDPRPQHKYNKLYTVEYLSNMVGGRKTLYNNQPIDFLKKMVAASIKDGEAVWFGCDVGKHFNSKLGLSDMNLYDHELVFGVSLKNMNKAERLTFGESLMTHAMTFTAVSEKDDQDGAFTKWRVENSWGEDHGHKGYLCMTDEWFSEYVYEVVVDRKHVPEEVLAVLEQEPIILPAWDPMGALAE

CaMK2d (CAMK2D) = CaMK2d (CAMK2D) (Homo sapiens, UniProt Q13557)
CaMK2d (CAMK2D), sequence (Q13557 whole entry): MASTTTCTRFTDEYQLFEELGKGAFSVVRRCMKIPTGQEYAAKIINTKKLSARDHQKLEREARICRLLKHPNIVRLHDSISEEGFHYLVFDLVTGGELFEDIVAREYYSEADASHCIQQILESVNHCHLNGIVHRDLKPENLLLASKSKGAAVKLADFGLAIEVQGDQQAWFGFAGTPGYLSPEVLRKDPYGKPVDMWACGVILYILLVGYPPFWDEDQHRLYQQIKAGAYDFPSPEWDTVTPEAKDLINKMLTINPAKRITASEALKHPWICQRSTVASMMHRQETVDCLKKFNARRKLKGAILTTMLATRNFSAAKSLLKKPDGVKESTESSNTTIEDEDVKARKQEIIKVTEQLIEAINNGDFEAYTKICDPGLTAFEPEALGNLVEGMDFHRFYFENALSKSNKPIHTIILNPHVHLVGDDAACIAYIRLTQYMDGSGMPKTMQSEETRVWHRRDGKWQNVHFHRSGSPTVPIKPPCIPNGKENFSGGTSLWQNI

[3] = target: p38a (MAPK14, IPI00221141) (Homo sapiens, UniProt Q16539); assay: gefitinib competition against AX14596 beads (HeLa lysate, SILAC MS); assay type: binding
p38a (MAPK14, IPI00221141), sequence (Q16539 1-360 isoform Q16539-2): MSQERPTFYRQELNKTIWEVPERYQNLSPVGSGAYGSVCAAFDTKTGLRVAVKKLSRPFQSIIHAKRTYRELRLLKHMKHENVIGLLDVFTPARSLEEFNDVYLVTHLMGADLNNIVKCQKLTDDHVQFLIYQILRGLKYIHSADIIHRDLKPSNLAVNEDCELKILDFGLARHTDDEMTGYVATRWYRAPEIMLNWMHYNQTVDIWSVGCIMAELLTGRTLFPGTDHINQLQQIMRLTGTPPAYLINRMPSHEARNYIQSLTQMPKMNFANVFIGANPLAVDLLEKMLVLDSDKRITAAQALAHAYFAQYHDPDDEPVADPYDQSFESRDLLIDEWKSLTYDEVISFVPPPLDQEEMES

[4] = average of two experiments, read-out: Kd Avg

Structure (SMILES): CC(C)n1c(=O)ccc2cnc(Nc3ccc(OCCN)cc3)nc21 [V16742]
- interaction of kinases with V16742 matrix, immunoblot (JNK2, RIPK2, ERK2, ROCK2): specifically interacted with the V16742 matrix
- Percent bound at various 16742 conc ([1]; Experiment 1, 1.87 μM 16742): 4.41%
- Percent bound at various 16742 conc ([1]; Experiment 1, 8.74 μM 16742): 4.37%
- Percent bound at various 16742 conc ([1]; Experiment 1, 52 μM 16742): 62.08%
- Kd ([1]; Experiment 1, read-out: Kd): 42.7 µM
- Percent bound at various 16742 conc ([1]; Experiment 2, 1.87 μM 16742): 8.75%
- Percent bound at various 16742 conc ([1]; Experiment 2, 8.74 μM 16742): 10.79%
- Percent bound at various 16742 conc ([1]; Experiment 2, 52 μM 16742): 41.03%
- Kd ([1]; Experiment 2, read-out: Kd): 72.8 µM
- Kd [1, 4]: 57.7 µM
- Percent bound at various 16742 conc ([2]; Experiment 1, 1.87 μM 16742): 2.22%
- Percent bound at various 16742 conc ([2]; Experiment 1, 8.74 μM 16742): 2.55%
- Percent bound at various 16742 conc ([2]; Experiment 1, 52 μM 16742): 51.05%
- Kd ([2]; Experiment 1, read-out: Kd): 60 µM
- Percent bound at various 16742 conc ([2]; Experiment 2, 1.87 μM 16742): 2.11%
- Percent bound at various 16742 conc ([2]; Experiment 2, 8.74 μM 16742): 1.91%
- Percent bound at various 16742 conc ([2]; Experiment 2, 52 μM 16742): 24.69%
- Kd ([2]; Experiment 2, read-out: Kd): 165 µM
- Kd [2, 4]: 113 µM
- affinity class of target for V16742 (ROCK2): Very low affinity target not significantly enriched in IVA2

Structure (SMILES): CC(C)n1c(=O)ccc2cnc(Nc3ccc(OCCN)cc3)nc21 [compound 16742]
- Percent bound at 1.87 μM 16742 conc (GSK3A; EXPERIMENT 1): 7.34%
- Percent bound at 8.74 μM 16742 conc (GSK3A; EXPERIMENT 1): 35.37%
- Percent bound at 52 μM 16742 conc (GSK3A; EXPERIMENT 1): 84.48%
- Kd (GSK3A; EXPERIMENT 1, read-out: Kd): 14.3 µM
- Percent bound at 1.87 μM 16742 conc (GSK3A; EXPERIMENT 2): 4.30%
- Percent bound at 8.74 μM 16742 conc (GSK3A; EXPERIMENT 2): 29.09%
- Percent bound at 52 μM 16742 conc (GSK3A; EXPERIMENT 2): 78.29%
- Kd (GSK3A; EXPERIMENT 2, read-out: Kd): 18.8 µM
- Kd (GSK3A; read-out: Kd Avg): 16.6 µM
- Percent bound at 1.87 μM 16742 conc (BRD3; EXPERIMENT 1): 0.00%
- Percent bound at 8.74 μM 16742 conc (BRD3; EXPERIMENT 1): 0.00%
- Percent bound at 52 μM 16742 conc (BRD3; EXPERIMENT 1): 71.55%
- Kd (BRD3; EXPERIMENT 1, read-out: Kd): 37 µM
- Percent bound at 1.87 μM 16742 conc (BRD3; EXPERIMENT 2): 8.24%
- Percent bound at 8.74 μM 16742 conc (BRD3; EXPERIMENT 2): 11.86%
- Percent bound at 52 μM 16742 conc (BRD3; EXPERIMENT 2): 65.82%
- Kd (BRD3; EXPERIMENT 2, read-out: Kd): 33.9 µM
- Kd (BRD3; read-out: Kd Avg): 35.4 µM

Structure (SMILES): COc1cc2ncnc(Nc3ccc(F)c(Cl)c3)c2cc1OCCCN1CCOCC1 [gefitinib]
- rAVERAGE (10 nM/0 nM Gef.) (RPL7): 0.84
- rAVERAGE (100 nM/0 nM Gef.) (RPL7): 1.08
- rAVERAGE (1000 nM/0 nM Gef.) (RPL7): 0.86
- rAVERAGE (10000 nM/0 nM Gef.) (RPL7): 0.98
- IC50 (BLMH): 0.223 µM
- rAVERAGE (10 nM/0 nM Gef.) (BLMH): 0.82
- rAVERAGE (100 nM/0 nM Gef.) (BLMH): 0.53
- rAVERAGE (1000 nM/0 nM Gef.) (BLMH): 0.43
- rAVERAGE (10000 nM/0 nM Gef.) (BLMH): 0.11
- Ki (BLMH; read-out: Ki (Gef)): 0.0779 µM
- rAVERAGE (10 nM/0 nM Gef.) (CaMK2d (CAMK2D)): 0.89
- rAVERAGE (100 nM/0 nM Gef.) (CaMK2d (CAMK2D)): 1.11
- rAVERAGE (1000 nM/0 nM Gef.) (CaMK2d (CAMK2D)): 0.91
- rAVERAGE (10000 nM/0 nM Gef.) (CaMK2d (CAMK2D)): 0.93
- rAVERAGE (10 nM/0 nM Gef.) [3]: 0.88
- rAVERAGE (100 nM/0 nM Gef.) [3]: 0.97
- rAVERAGE (1000 nM/0 nM Gef.) [3]: 0.97
- rAVERAGE (10000 nM/0 nM Gef.) [3]: 0.64
